One data set deals with T1, AdipoR1-Δ88 (Homo sapiens, UniProt Q96A54).
T1 construct: made in house; host or cells: Sf9 insect cells (Bac-to-Bac baculovirus)
T1 sequence (Q96A54 89-375 limits assumed): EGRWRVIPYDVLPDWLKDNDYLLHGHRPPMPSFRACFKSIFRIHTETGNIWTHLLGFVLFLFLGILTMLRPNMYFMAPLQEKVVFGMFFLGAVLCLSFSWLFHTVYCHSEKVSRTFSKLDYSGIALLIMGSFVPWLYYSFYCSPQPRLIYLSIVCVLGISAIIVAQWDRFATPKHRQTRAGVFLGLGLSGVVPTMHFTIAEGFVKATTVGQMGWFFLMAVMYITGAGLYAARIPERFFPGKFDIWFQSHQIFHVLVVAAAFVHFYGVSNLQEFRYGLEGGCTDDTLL
Briefly: Surface plasmon resonance binding to immobilized AdipoR1-Δ88. The settings on record: for SPR screening of designed peptides, selection: Biacore T-200, selected versus ADP355 by concentration-dependent signal increase, dissociation rate and estimated Kd, 25 candidate peptides. The method, then: DNA gene fragment encoding AdipoR1 fused to an N-terminal flag tag was synthesized after codon optimization for insect cell expression (Integrated DNA Technologies). Full length AdipoR1 and AdipoR1-Δ88 were expressed in SF9 cell line using Bac-to-Bac Baculovirus system and purified following the procedure described by T. Tanabe et. al.. Briefly, 1 L SF9 cells infected with amplified baculovirus were cultured in SF-900 III SFM media (Thermo Fisher Scientific) for 3 days at 27°C. Harvested cells were disrupted by dounce homogenization, followed by centrifugation at 30,000 rpm for 2 hours. Collected raw membrane were washed with HEPES buffer and stored in -80°C after flash-freezing. Membranes were solubilized with 1% DDM (Anatrace) and recombinant AdipoR1-Δ88 was purified by using anti-flag tag antibody magnetic beads (Sigma). Eluted AdipoR1-Δ88 by flag peptide (Sigma) was further purified in 20 mM HEPES (pH7.4), 150 mM NaCl, 10% glycerol, 0.025% DDM, and 0.0001% CHS by Superdex 200 (GE Healthcare). The amount of purified AdipoR1-Δ88 was estimated by using Bradford staining.
In order to screen peptide library against AdipoR1, purified AdipoR1-Δ88 was immobilized onto S-series CM5 chip (GE Healthcare Life Science). Since AdipoR1-Δ88 was solubilized with a detergent-containing buffer solution, pH scouting solutions with various pH from 3.5 to 5.5 were prepared with the same detergent solution, 0.025% DDM and 0.0001% cholesteryl-hemi-succinate (CHS, Anatrace). At pH 5, AdipoR1-Δ88 was immobilized at around 4000 response unit using amine coupling method though EDC/NHS. After enough stabilization with running buffer consisting of 20 mM HEPES (pH7.4), 150 mM NaCl, 10% glycerol, 0.025% DDM, and 0.0001% CHS, serial concentrations from 1 to 100 μM were injected into reference and sample cells with 60-second contact time, 200-second dissociation time, and 30 μl/min flow rate at 4°C. The resulting sensorgrams were double-blanked by reference cell and buffer injection.

For a further data set, the system named is AdipoRs. The settings on record: previous studies; cited from earlier work.
In data set [1] the test system is AdipoR1-mediated AMPK activation (pAMPK Thr172) in differentiated C2C12 myotubes. Kind of data set: AMPK activation in differentiated C2C12 myotubes (Western blot). Format: cell-based, Mouse. The following applies: differentiated C2C12 myotubes, 0.8, 4 and 20 μM, in words. The method, then: (§1) Mouse C2C12 myoblasts (American Type Culture Collection) were maintained in Dulbecco’s modified Eagle’s medium (DMEM) supplemented with 10% FBS. C2C12 myotube was obtained by culturing myoblasts in DMEM containing 2% horse serum for at least 5 days with daily media change. On the fifth day, differentiation of cells could be confirmed by multinucleated contracted myotubes. C2C12 myotubes were then treated with selected peptide candidates at indicated concentrations for 30 minutes. As a positive control, 2 μg/ml recombinant human globular adiponectin and indicated concentrations of ADP355 were used.
(§2) Cell lysates were subjected to SDS-PAGE and western blot analysis. Briefly, cells were lysed with protein lysis buffer (RIPA, Thermo) followed by heat denaturation. Five micrograms of whole cell proteins were applied to SDS-PAGE. After electrophoresis, the proteins were transferred onto PVDF membrane, followed by membrane blocking in TBS-T buffer containing 5% non-fat dry milk for 1 hour at room temperature. The membrane was probed with the following different primary antibodies: anti-phosphorylated-AMPK (Thr172) (Cell Signaling), anti-tAMPK (Cell Signaling), anti-pACC, and anti-GAPDH (Santa-Cruz). […] Signals from Western blot were quantified by using Image Lab Software 6.0 (Bio-Rad).

The nature of the next data set: Solubility of peptides. The data set is classed as physicochemical.
In data set [2] the test system is acetyl Co-A carboxylase (ACC) phosphorylation in differentiated C2C12 myotubes. Kind of data set: ACC phosphorylation in differentiated C2C12 myotubes (Western blot). Format: cell-based, Mouse. The following applies: PEGylated BHD1028, Western blot, in words. The method, then:
as §1, §2
On the technique in general: In western blotting, separated proteins are transferred to a membrane and probed.

The target in data set [3] is T2, AdipoR1-Δ88 (adiponectin receptor 1 lacking the N-terminal 88 residues) (human, UniProt Q96A54 89-375).
T2 construct: Adiponectin receptor 1 (AdipoR1), human; N-terminal 88 residues deleted; gene synthesised, codon-optimised for insect cells; Kept in 0.025% DDM and 0.0001% CHS; The functional rows were done on mouse C2C12 or human HepG2 cells with their own AdipoR1; m1 stands there for AdipoR1; also called AdipR1-Δ88; source: SF9 cells (Bac-to-Bac baculovirus), solubilised with 1% DDM, purified (anti-flag …)
T2 sequence (looked up): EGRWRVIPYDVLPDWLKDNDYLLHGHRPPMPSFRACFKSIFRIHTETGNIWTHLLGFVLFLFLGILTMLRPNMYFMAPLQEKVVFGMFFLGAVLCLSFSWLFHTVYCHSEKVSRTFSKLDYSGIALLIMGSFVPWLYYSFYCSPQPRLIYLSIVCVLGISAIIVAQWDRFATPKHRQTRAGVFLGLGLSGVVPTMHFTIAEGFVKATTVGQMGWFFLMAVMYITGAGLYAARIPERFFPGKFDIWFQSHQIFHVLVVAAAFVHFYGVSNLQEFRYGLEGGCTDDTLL
Briefly: SPR; AdipoR1-Δ88 immobilised on CM5 chip by amine coupling at pH 5 (around 4000 RU); peptides 1 to 100 μM injected, 60 s contact, 200 s dissociation, 30 μl/min, 4°C; 20 mM HEPES pH 7.4, 150 mM NaCl, 10% glycerol, 0.025% DDM, 0.0001% CHS; Kd from saturation curves of responses at equilibrium. The following applies: both partners purified.

Values after ≈ are worked out from the molar mass of the structure shown. Where a SMILES comes first, the peptide text is derived from it. Where no end group is shown, it is not given here. [ ]: non-standard residue; d: D form. Nva = CCC[C@H](N)C(=O)O

As for `CCC[C@H](NC(=O)[C@@H]1CCCN1C(=O)[C@@H](NC(=O)[C@H](N)CC(N)=O)[C@@H](C)CC)C(=O)N[C@@H](CC(C)C)C(=O)N[C@@H](Cc1ccc(O)cc1)C(=O)N[C@H](CO)C(=O)N[C@@H](Cc1ccccc1)C(=O)N[C@@H](C)C(=O)N[C@H](CO)C(N)=O` [ADP355, reference compound] (H-[dN]IP[Nva]LY[dS]FA[dS]-NH2), the equilibrium dissociation constant (Kd) (usually the free concentration of one partner at which half of the binding sites on the other are occupied at equilibrium, for simple one-to-one binding) at AdipoR1-Δ88 (SPR, AdipoR1-Δ88 amine-coupled on CM5 chip, 1 to 100 μM peptide, 4°C, 20 mM HEPES pH7.4, 0.025% DDM, 0.0001% CHS, from saturation curves with responses at equilibrium state) was > 100 µM. Also, at AdipoR1-Δ88 (SPR, AdipoR1-Δ88 on CM5 chip, serial concentrations 1 to 100 μM, in words), the SPR response result is “very weak SPR responses except 100 μM concentration”. Besides, in the data set on AdipoRs, the cellular efficacy entry was “nano molar concentration”.
In the case of `CC[C@H](C)[C@H](NC(=O)[C@H](CC(N)=O)NC(=O)[C@@H]1CCCN1C(=O)[C@H](Cc1c[nH]cn1)NC(=O)[C@H](Cc1ccc(O)cc1)NC(=O)[C@H](C)NC(=O)[C@H](Cc1ccccc1)NC(=O)[C@H](Cc1ccc(O)cc1)NC(=O)[C@@H](N)Cc1c[nH]c2ccccc12)C(=O)N1CCC[C@H]1C(=O)NCC(=O)N[C@@H](CC(C)C)C(=O)N[C@@H](Cc1c[nH]c2ccccc12)C(=O)N[C@@H](Cc1ccc(O)cc1)C(=O)N[C@@H](Cc1ccccc1)C(=O)O` [BHD43] (H-WYFAYHPNIPGLWYF-OH), the “SPR screening of designed peptides, selection” value (shortened to “SPR screening … selection”) on AdipoR1-Δ88 is on record as “preliminarily selected”. In data set [1], the AMPK activation entry is “activated AMPK in a concentration-dependent manner”.
Turning to `CC[C@H](C)[C@H](NC(=O)[C@H](CC(N)=O)NC(=O)[C@@H]1CCCN1C(=O)[C@H](Cc1c[nH]cn1)NC(=O)[C@H](Cc1ccc(O)cc1)NC(=O)[C@H](C)NC(=O)[C@H](Cc1ccccc1)NC(=O)[C@H](Cc1ccc(O)cc1)NC(=O)[C@@H](N)Cc1ccccc1)C(=O)N1CCC[C@H]1C(=O)NCC(=O)N[C@@H](CC(C)C)C(=O)N[C@@H](Cc1ccccc1)C(=O)N[C@@H](Cc1ccc(O)cc1)C(=O)N[C@@H](Cc1ccccc1)C(=O)O` [BHD44] (H-FYFAYHPNIPGLFYF-OH), the “SPR screening … selection” value at AdipoR1-Δ88 is “preliminarily selected”. The AMPK activation result in data set [1] is listed as “activated AMPK in a concentration-dependent manner”.
As for `CC[C@H](C)[C@H](NC(=O)[C@H](CC(N)=O)NC(=O)[C@@H]1CCCN1C(=O)[C@H](Cc1c[nH]cn1)NC(=O)[C@H](Cc1ccc(O)cc1)NC(=O)[C@H](C)NC(=O)[C@H](Cc1ccccc1)NC(=O)[C@H](Cc1ccc(O)cc1)NC(=O)[C@@H](N)Cc1ccc(O)cc1)C(=O)N1CCC[C@H]1C(=O)NCC(=O)N[C@@H](CC(C)C)C(=O)N[C@@H](Cc1ccc(O)cc1)C(=O)N[C@@H](Cc1ccc(O)cc1)C(=O)N[C@@H](Cc1ccccc1)C(=O)O` [BHD1028] (H-YYFAYHPNIPGLYYF-OH), on AdipoR1-Δ88, the “SPR screening … selection” value is listed as “preliminarily selected”. The “dissociation in the SPR sensorgram” value on AdipoR1-Δ88 (among screened peptides, in words) is given as “slowest dissociation”. In addition, the “solubility in DMSO” value in “Solubility of peptides” (DMSO) is on record as 100 mM (≈ 193 mg/mL). Also, in “Solubility of peptides” (aqueous buffer, PBS buffer pH 7.4, unmodified peptide), the solubility – broadly, the dissolved amount per volume that the medium holds – was ≤ 50 µM.
Take “PEGylated BHD1028: BHD1028 N-terminally mono-PEGylated with 5000 Da polyethylene glycol ({PEG 5000 Da}-YYFAYHPNIPGLYYF)”: the “ACC activation, concentration dependence” value in data set [2] is “concentration dependent”. Further, in the data set “Solubility of peptides” (modified with 5000 Da of PEG, in words), the “solubility after PEGylation” value is on record as “much enhanced solubility”.

B1: BHD1028 (peptide)
peptide: YYFAYHPNIPGLYYF
notes: designed 15-mer, adiponectin-mimetic; free N- and C-termini as printed (NH2-...-COOH); also called BHD31; source: synthetic peptide (AnyGen Ltd.)
Regarding B1, the equilibrium dissociation constant (Kd) in data set [3] came out at 16 µM.

B2: BHD43 (peptide)
peptide: WYFAYHPNIPGLWYF
notes: designed 15-mer, adiponectin-mimetic; free N- and C-termini as printed (NH2-...-COOH); source: synthetic peptide (AnyGen Ltd.)
The molecule B2 came in with a Kd in data set [3] of 10 µM.

B3: BHD44 (peptide)
peptide: FYFAYHPNIPGLFYF
notes: as for B2
Take B3: the Kd in data set [3] was 4.3 µM.
